In PubChem BioAssay (NCI):
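Grown in 96-well plates, cells were treated for 48 hours with each compound at five concentrations. Insufficient inhibition: endpoint recorded as highest concentration tested. TGI: concentration producing complete growth inhibition.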

Tests used:
Test in all cases: inhibition of tumour cell growth, NCI panel, 48 h
[1] = system: HOP-62 NSCLC
[2] = system: UACC-62 melanoma
[3] = system: A498 renal
[4] = system: OVCAR-8 ovarian
[5] = system: SR leukemia
[6] = system: NCI/ADR-RES ovarian
[7] = system: SN12C renal
[8] = system: NCI-H23 lung
[9] = system: MOLT-4 leukemia
[10] = system: HCT-15 colon
[11] = system: 786-0 renal
[12] = system: HL-60(TB) leukemia
[13] = system: SK-MEL-5 melanoma

Structure (SMILES) | TGI [1] [µM] | TGI [2] [µM] | TGI [3] [µM] | TGI [4] [µM] | TGI [5] [µM] | TGI [6] [µM] | TGI [7] [µM] | TGI [8] [µM] | TGI [9] [µM] | TGI [10] [µM] | TGI [11] [µM] | TGI [12] [µM] | TGI [13] [µM]
c1ccc(-c2sc(-c3ccccc3)c3c2C2CCC3C2)cc1 | > 100 | > 100 | > 100 | > 100 | 56.8 | > 100 | > 100 | > 100 | > 100 | > 100 | > 100 | > 100 | 49.7
N=c1oc2ccc([N+](=O)[O-])cc2cc1C(=O)Nc1ccccn1 | > 100 | > 100 | > 100 | > 100 | > 100 | > 100 | > 100 | > 100 | > 100 | > 100 | 42.9 | > 100 | > 100
c1csc(-c2cscc2-c2cccs2)c1 | 93.8 | > 100 | > 100 | > 100 | > 100 | > 100 | > 100 | > 100 | > 100 | > 100 | > 100 | > 100 | > 100
CC(=O)c1c2c(cc3c1CC1(C3)Cc3ccc4c(c3C1=O)CCC4)CCC2 (stereo not given) | > 100 | > 100 | > 100 | > 100 | 64 | 17.7 | > 100 | > 100 | > 100 | > 100 | > 100 | 15 | 38.5
O=C(Nc1sccc1S(=O)(=O)c1ccc(Cl)cc1)c1ccc(Cl)cc1Cl | > 100 | > 100 | > 100 | > 100 | > 100 | > 100 | > 100 | > 100 | > 100 | > 100 | > 100 | > 100 | > 100
